These results are taken from patent publication US20100203123A1, “METHODS FOR IMPROVING COGNITIVE FUNCTION AND DECREASING HEART RATE” (MARTEK BIOSCIENCES CORPORATION, priority 2009, published 2010).

What all share (format): in vivo, human
Test [1] concerns healthy elderly subjects with a mild memory complaint. Briefly: CANTAB Pattern Recognition Memory (PRM) test. The settings on record: about 900 mg/d, 24 weeks. How it is done: (§1) The effects of DHA (about 900 mg/day) versus placebo was tested to determine whether cognitive measures of memory, attention, and executive function were improved, utilizing the Cambridge Neuropsychological Test Automated Battery (CANTAB) cognitive battery, in healthy elderly subjects with a mild memory complaint. One objective of the study was to determine the effect of DHA administration versus placebo on improving cognitive functions (i.e., working memory, memory retention, attention, processing speed, and executive function) in healthy elderly with a subjective memory complaint. […]
(§2) The secondary efficacy endpoints included: • CANTAB tests of executive function and planning: Spatial Working Memory […] and Stockings of Cambridge (SOC) • CANTAB Verbal Recognition Memory test (VRM) • CANTAB Pattern Recognition test (PRM) • Visual acuity (measured by Snellen Eye chart; corrected vision) • Memory Functioning Questionnaire: Frequency of Forgetting-10 (Self-rating scale) • Activities of Daily Living (ADCS-ADL PI) scale (Self-rating) • Clinical measures of cognitive function and computerized assessments were administered by (CANTAB) certified examiners at each site blinded to the subject's treatment. • Description of CANTAB Battery of tests […]

Test [2] has the same test system. Kind of test: CANTAB Spatial Working Memory (SWM) test. To be noted: about 900 mg/d, 24 weeks. The procedure:
as §1, §2

Test [3] shares this test system. Briefly: Mini-Mental State Examination (MMSE). The settings on record: 6 month study, not different between groups. The source says: During the Screening Period, subjects were selected on the basis of specific inclusion and exclusion criteria, including a screening Logical Memory sub-test of the Wechsler Memory Scale (WMS III). See e.g., Wechsler, D., Administration and Scoring Manual, 3rd ed. San Antonio, Tex.: Harcourt Brace & Company, 1997. In addition to the Logical Memory sub-test, the Mini-Mental State Examination (MMSE), Geriatric Depression scale, and a test of visual acuity and a DHA Food Frequency Questionnaire were administered to all subjects at screening. See e.g., Folstein et al., Pyschiatr. Res. 12:189-198 (1975); Yesavage J., et al., J Psychiatr. Res. […] (1982). Eligible subjects who meet the screening criteria were given a pre-baseline training session with the computerized cognitive battery, CANTAB.
Other secondary measures included self-assessment tests of memory (Frequency of Forgetting-10 scale) (Zelinski, E. M. et al., Aging and Mental Health […]), Alzheimer's Disease Cooperative Study-Activities of Daily Living Prevention Instrument (ADCS-ADL PI scale) (Galasko, D., Alzheimer Dis. Assoc. Disord. 20:S152-69 (200)), Mini-Mental State Examination (MMSE) (Folstein et al., Pyschiatr. Res. 12:189-198 (1975) and the Geriatric Depression Scale (Yesavage, J., et al., J Psychiatr. Res. […]).

Entries after “also recorded” stand apart in the source; their conditions may differ.

For `CC/C=C\C/C=C\C/C=C\C/C=C\C/C=C\C/C=C\CCC(=O)O` [DHA, (all-Z)-4,7,10,13,16,19-docosahexaenoic acid], the “CANTAB Pattern Recognition test responses, DHA versus placebo” value in test [1] is on record as “not significantly different”. Further, in test [2], the “Spatial Working Memory (SWM) test responses, DHA versus placebo” value is listed as “not significantly different; also recorded: not found”. The “MMSE, global cognitive function” value in test [3] is recorded as “unchanged”.
